Laboratory results from patent US7615651B2, “Diaryl, dipyridinyl and aryl-pyridinyl derivatives and uses thereof” (Pfizer Inc., priority 2006, dated 2009).
Structures can show the parent of a compound that is named as a salt. Where two headings read alike, the source gives them in different places.

Assays:
Type in all cases: biochemical
opioid receptor delta = biological target: T1, opioid receptor delta (Homo sapiens, UniProt P41143); test: GTPγ[35S] binding assay, antagonism of BW-373U86
T1 construct: expressed in transfected cells
Experimental: (§1) Membranes were prepared from cells as described (Bass et al, 1996). GTPγ[5S] binding assays were performed in a 96 well FlashPlate™ format in duplicate using […] GTPγ[^35S] and 5 μg membrane per well in assay buffer composed of 50 mM Tris HCl, pH 7.4, 5 mM MgCl2, 1 mM EDTA, 100 mM NaCl, 30 μM GDP, 0.1% bovine serum albumin and the following protease inhibitors: 100 μg/ml bacitracin, 100 μg/ml benzamidine, 5 μg/ml aprotinin, 5 μg/ml leupeptin. The assay mix was then incubated at 30° C. with increasing concentrations of antagonist (10^−10 M to 10^−5 M) for 10 minutes and challenged with the agonists BW-373U86 (1 nM), dynorphin-A (10 nM), […] (1 μM) for opioid receptors delta, kappa, and mu, respectively. The assays were performed at 30° C. for one hour. The FlashPlates were then centrifuged at 2000×g for 10 minutes. Stimulation of GTPγ[^35S] binding was then quantified using a Wallac Microbeta and Ki calculations were done using Prism™ by Graphpad.

opioid receptor kappa = biological target: T2, opioid receptor kappa (Homo sapiens, UniProt P41145); test: GTPγ[35S] binding assay, antagonism of dynorphin-A
T2 construct: expressed in transfected cells
Experimental: as §1

opioid receptor mu = biological target: T3, opioid receptor mu (Homo sapiens, UniProt P35372); test: GTPγ[35S] binding assay, antagonism of endorphin
T3 construct: expressed in transfected cells
Experimental: as §1

[1] = read-out: Delta functional Ki (GTPγ[35S] binding)
[2] = read-out: Kappa functional Ki (GTPγ[35S] binding)
[3] = read-out: Mu functional Ki (GTPγ[35S] binding)
[4] = read-out: Delta functional (GTPγ[35S] binding Ki)
[5] = read-out: Kappa functional (GTPγ[35S] binding Ki)
[6] = read-out: Mu functional (GTPγ[35S] binding Ki)
[7] = average Ki, antagonism of dynorphin-A (10 nM) at kappa opioid receptor membranes, read-out: Kappa functional Ki (GTPγ[35S] binding)
[8] = average Ki, antagonism of endorphin (1 μM) at mu opioid receptor membranes, read-out: Mu functional Ki (GTPγ[35S] binding)
[9] = average Ki, antagonism of BW-373U86 (1 nM) at delta opioid receptor membranes, read-out: Delta functional Ki (GTPγ[35S] binding)
[10] = average Ki, antagonism of BW-373U86 (1 nM) stimulated GTPγ[35S] binding, delta opioid receptor membranes, read-out: Delta functional (GTPγ[35S] binding Ki)
[11] = average Ki, antagonism of dynorphin-A (10 nM) stimulated GTPγ[35S] binding, kappa opioid receptor membranes, read-out: Kappa functional (GTPγ[35S] binding Ki)
[12] = average Ki, antagonism of endorphin (1 μM) stimulated GTPγ[35S] binding, mu opioid receptor membranes, read-out: Mu functional (GTPγ[35S] binding Ki)
[13] = average Ki, antagonism of dynorphin-A (10 nM) at kappa opioid receptor, read-out: Kappa functional Ki (GTPγ[35S] binding)
[14] = average Ki, antagonism of endorphin (1 μM) at mu opioid receptor, read-out: Mu functional Ki (GTPγ[35S] binding)

T3 sequence (P35372 whole entry): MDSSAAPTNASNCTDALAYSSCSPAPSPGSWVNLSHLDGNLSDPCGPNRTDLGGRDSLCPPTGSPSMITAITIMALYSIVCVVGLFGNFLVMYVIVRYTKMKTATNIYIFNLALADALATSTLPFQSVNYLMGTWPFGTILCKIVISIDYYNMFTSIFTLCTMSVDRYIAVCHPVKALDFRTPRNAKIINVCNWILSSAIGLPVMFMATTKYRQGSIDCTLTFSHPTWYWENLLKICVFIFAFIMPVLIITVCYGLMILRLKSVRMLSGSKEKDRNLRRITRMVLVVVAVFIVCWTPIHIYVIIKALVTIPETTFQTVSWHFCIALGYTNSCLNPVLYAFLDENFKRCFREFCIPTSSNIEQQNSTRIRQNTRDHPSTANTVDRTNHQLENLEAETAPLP
T1 sequence (P41143 whole entry): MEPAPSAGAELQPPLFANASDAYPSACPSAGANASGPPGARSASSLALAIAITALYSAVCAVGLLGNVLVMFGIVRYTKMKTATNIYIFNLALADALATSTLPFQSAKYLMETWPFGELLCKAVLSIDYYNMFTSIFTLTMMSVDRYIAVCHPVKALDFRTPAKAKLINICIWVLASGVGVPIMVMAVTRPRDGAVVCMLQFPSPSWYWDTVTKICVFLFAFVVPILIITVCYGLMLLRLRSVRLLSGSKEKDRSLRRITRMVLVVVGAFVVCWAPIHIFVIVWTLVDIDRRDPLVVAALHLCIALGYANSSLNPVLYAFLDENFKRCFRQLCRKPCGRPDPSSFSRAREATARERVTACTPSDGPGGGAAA
T2 sequence (P41145 whole entry): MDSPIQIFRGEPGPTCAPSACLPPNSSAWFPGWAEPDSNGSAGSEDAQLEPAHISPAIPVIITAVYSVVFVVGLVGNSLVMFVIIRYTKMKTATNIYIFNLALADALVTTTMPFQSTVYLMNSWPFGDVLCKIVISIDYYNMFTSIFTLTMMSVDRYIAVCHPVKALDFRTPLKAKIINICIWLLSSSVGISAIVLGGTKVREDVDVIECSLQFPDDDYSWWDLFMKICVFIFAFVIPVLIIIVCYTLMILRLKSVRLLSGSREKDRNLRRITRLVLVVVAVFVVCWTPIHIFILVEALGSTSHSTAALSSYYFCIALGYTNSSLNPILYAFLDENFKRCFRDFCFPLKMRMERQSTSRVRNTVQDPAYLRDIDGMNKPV

Compound `Cc1cc(C(N)=O)ccc1-c1ccc(CNC2Cc3ccccc3C2)c(OCc2ccccc2)c1` [4B-86] has a Ki (opioid receptor delta; [1]) of 0.0438 nM, a Ki (opioid receptor kappa; [2]) of 1.74 nM and a Ki (opioid receptor mu; [3]) of 0.0895 nM.

Compound `NC(=O)c1cccc(-c2ccc(CNC3CCc4ccccc43)cc2Cl)c1` (stereo not drawn) [4A-11] has a Ki (opioid receptor delta; [4]) of 21.3 nM, a Ki (opioid receptor kappa; [5]) of 7.69 nM and a Ki (opioid receptor mu; [6]) of 6.27 nM.

In the case of `NC(=O)c1ccc(-c2ccc(CNC3Cc4ccccc4C3)c(F)c2)c(Cl)c1` [4B-63], the Ki (opioid receptor delta; [1]) is reported as 0.629 nM, the Ki (opioid receptor kappa; [2]) is reported as 0.633 nM and the Ki (opioid receptor mu; [3]) is reported as 0.226 nM.

`CC(C)CCNCc1ccc(-c2ccc(-c3ncn[nH]3)cc2)cc1` [7B-01] showed a Ki (opioid receptor delta; [1]) of 311 nM, a Ki (opioid receptor kappa; [2]) of 35 nM and a Ki (opioid receptor mu; [3]) of 10.3 nM.

For `Cc1cc(CNCCC2CCOCC2)ccc1-c1ccc(C(N)=O)cc1C` [4B-70], the Ki (opioid receptor delta; [1]) was 1.04 nM, the Ki (opioid receptor kappa; [2]) was 2.48 nM and the Ki (opioid receptor mu; [3]) was 2 nM.

For `Cc1cc(CNCCC(C)C)ccc1-c1cccc(-c2ncn[nH]2)c1` [7A-05], the Ki (opioid receptor kappa; [7]) was 2.12 nM and the Ki (opioid receptor mu; [8]) was 0.505 nM.

In the case of `NC(=O)c1cccc(-c2cc(F)c(CNC3Cc4ccccc4C3)c(F)c2)c1` [1A-10], the Ki (opioid receptor delta; [4]) is reported as 5.5 nM, the Ki (opioid receptor kappa; [5]) is reported as 14.4 nM and the Ki (opioid receptor mu; [6]) is reported as 0.966 nM.

In the case of `NC(=O)c1ccc(-c2ccc(CN[C@H]3CCc4ccccc43)cc2)c(Cl)c1` [4B-38], the Ki (opioid receptor delta; [1]) is reported as 5.59 nM, the Ki (opioid receptor kappa; [2]) is reported as 1.14 nM and the Ki (opioid receptor mu; [3]) is reported as 3.33 nM.

`CC(C)CCNCc1ccc(-c2ccc(C(N)=O)c(F)c2)cc1` [4B-15] was tested, and the Ki (opioid receptor delta; [4]) was 355 nM, the Ki (opioid receptor kappa; [5]) was 278 nM and the Ki (opioid receptor mu; [6]) was 295 nM.

Work on `Cc1cc(CNCCC(C)C)ccc1-c1ccc(NS(C)(=O)=O)cc1` [E8-01, (4′-Methenesulfonylamino-2-methyl-biphenyl-4-ylmethyl)-(3-methyl-butyl)-ammonium chloride] yielded a Ki (opioid receptor delta; [1]) of 32.6 nM, a Ki (opioid receptor kappa; [2]) of 281 nM and a Ki (opioid receptor mu; [3]) of 42.1 nM.

In the case of `Cc1cc(C(N)=O)ccc1-c1cc(F)c(CNC2Cc3ccccc3C2)cc1F` [4B-75], the Ki (opioid receptor delta; [9]) is reported as 0.309 nM, the Ki (opioid receptor kappa; [7]) is reported as 1.27 nM and the Ki (opioid receptor mu; [8]) is reported as 0.069 nM.

For `CC(C)CCNCc1ccc(-c2ccc(C(N)=O)cc2)cc1` [4B-01], the Ki (opioid receptor delta; [4]) was 14 nM, the Ki (opioid receptor kappa; [5]) was 88.6 nM and the Ki (opioid receptor mu; [6]) was 175 nM.

For `CC(C)CCNCc1ccc(-c2cccc(C(N)=O)c2)cn1` [1C-01], the Ki (opioid receptor delta; [10]) was 22 nM, the Ki (opioid receptor kappa; [11]) was 114 nM and the Ki (opioid receptor mu; [12]) was 154 nM.

For `Cc1cc(-c2nnc[nH]2)ccc1-c1ccc(C[NH2+]CCC(C)C)cc1` [E7-01, [2′-methyl-4′-(4H-[1,2,4]-triazol-3-yl)-biphenyl-4-ylmethyl]-(3-methyl-butyl)-amine hydrochloride], the Ki (opioid receptor delta; [1]) was 11 nM, the Ki (opioid receptor kappa; [2]) was 13 nM and the Ki (opioid receptor mu; [3]) was 3.9 nM.

Work on `Cc1cc(C(N)=O)ccc1-c1ccc(CNCc2ccc3c(c2)CCO3)cc1` [4B-20] yielded a Ki (opioid receptor delta; [4]) of 4.21 nM, a Ki (opioid receptor kappa; [5]) of 34.5 nM and a Ki (opioid receptor mu; [6]) of 7.1 nM.

In the case of `CC(C)CCNCc1ccc(-c2cc(C(N)=O)ccc2F)cc1F` [1A-12], the Ki (opioid receptor delta; [10]) is reported as 17.2 nM, the Ki (opioid receptor kappa; [11]) is reported as 34.9 nM and the Ki (opioid receptor mu; [12]) is reported as 41.1 nM.

For `Cc1cc(CNCCC(C)C)ccc1-c1ccc(-c2ncn[nH]2)cc1` [7B-02], the Ki (opioid receptor delta; [1]) was 3.71 nM, the Ki (opioid receptor kappa; [2]) was 4.4 nM and the Ki (opioid receptor mu; [3]) was 0.72 nM.

Work on `Cc1cc(C(N)=O)cc(Cl)c1-c1ccc(CNCCC(C)C)cc1` [4B-49] yielded a Ki (opioid receptor delta; [1]) of 6.66 nM, a Ki (opioid receptor kappa; [2]) of 2.31 nM and a Ki (opioid receptor mu; [3]) of 2.72 nM.

`NC(=O)c1ccc(-c2ccc(CNC3Cc4ccccc4C3)cc2Cl)c(Cl)c1` [4B-68] gave a Ki (opioid receptor delta; [9]) of 0.724 nM, a Ki (opioid receptor kappa; [7]) of 0.759 nM and a Ki (opioid receptor mu; [8]) of 0.24 nM.

Compound `Cc1cc(C(N)=O)ccc1-c1ccc(CNCCC(C)C)cc1` [E4-02, (4′-carbamoyl-2′-methyl-biphenyl-4-ylmethyl)-(3-methyl-butyl)-ammonium chloride] has a Ki (opioid receptor delta; [4]) of 7.91 nM, a Ki (opioid receptor kappa; [5]) of 2.16 nM and a Ki (opioid receptor mu; [6]) of 6.2 nM.

With `Cc1cc(C(N)=O)ccc1-c1ccc(CNC(C)(C)c2ccccc2)cc1` [4B-19] the Ki (opioid receptor delta; [4]) was 19.5 nM, the Ki (opioid receptor kappa; [5]) was 23.4 nM and the Ki (opioid receptor mu; [6]) was 126 nM.

`Cc1cc(C(N)=O)ccc1-c1cc(F)c(CNCC2CCOCC2)c(F)c1` [4B-59] gave a Ki (opioid receptor delta; [1]) of 19.1 nM, a Ki (opioid receptor kappa; [2]) of 9.47 nM and a Ki (opioid receptor mu; [3]) of 33.3 nM.

Work on `Cc1cc(NS(C)(=O)=O)ccc1-c1ccc(CNCCC(C)C)cc1` [8B-01] yielded a Ki (opioid receptor kappa; [13]) of 1450 nM and a Ki (opioid receptor mu; [14]) of 715 nM.

Work on `CC(C)CCNCc1ccc(-c2cccc(C(N)=O)c2)c(Cl)c1` [4A-05] yielded a Ki (opioid receptor kappa; [11]) of 9.84 nM and a Ki (opioid receptor mu; [12]) of 0.95 nM.

`CC(C)CCNCc1ccc(-c2cccc(NS(C)(=O)=O)c2)cc1` [8A-01] was tested, and the Ki (opioid receptor kappa; [13]) was 45.9 nM and the Ki (opioid receptor mu; [14]) was 14.6 nM.

Work on `CC(C)CC[NH2+]Cc1ccc(-c2cccc(C(N)=O)c2)c(F)c1` [E5-01, (3′-Carbamoyl-2-fluoro-biphenyl-4-ylmethyl)-(3-methyl-butyl)-ammonium chloride] yielded a Ki (opioid receptor kappa; [2]) of 23 nM and a Ki (opioid receptor mu; [3]) of 14 nM.

In the case of `COc1cc(C(N)=O)ccc1-c1ccc(CNCCC(C)C)cc1` [4B-46], the Ki (opioid receptor kappa; [2]) is reported as 14.7 nM and the Ki (opioid receptor mu; [3]) is reported as 121 nM.
